Assay results from ChEMBL document CHEMBL1909046, “DrugMatrix in vitro pharmacology data”.

Tests used:
Adenosine receptor A3 = target: T1, Adenosine receptor A3 (Homo sapiens, UniProt P0DMS8); type: cell membranes, CHO-K1, Membrane;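 further: radioligand binding assay with AB-MECA serving as the labeled ligand; in other assays of this panel Not Active means under 50% inhibition at 10 µM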
T1 sequence (P0DMS8 whole entry): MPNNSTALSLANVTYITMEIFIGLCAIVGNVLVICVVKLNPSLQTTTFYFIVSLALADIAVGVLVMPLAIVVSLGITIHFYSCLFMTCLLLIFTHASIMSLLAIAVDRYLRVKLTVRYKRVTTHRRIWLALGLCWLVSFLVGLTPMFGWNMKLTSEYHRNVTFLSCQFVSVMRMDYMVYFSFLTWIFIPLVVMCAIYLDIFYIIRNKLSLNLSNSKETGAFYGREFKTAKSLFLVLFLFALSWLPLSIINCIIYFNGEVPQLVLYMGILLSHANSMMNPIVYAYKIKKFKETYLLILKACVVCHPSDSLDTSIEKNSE

[1] = target: T2, Neuropeptide Y receptor type 1 (Homo sapiens, UniProt P25929); type: cell membranes, Membrane; details: sk-n-mc; further: in other assays of this panel Not Active means under 50% inhibition at 10 µM
T2 sequence (P25929 whole entry): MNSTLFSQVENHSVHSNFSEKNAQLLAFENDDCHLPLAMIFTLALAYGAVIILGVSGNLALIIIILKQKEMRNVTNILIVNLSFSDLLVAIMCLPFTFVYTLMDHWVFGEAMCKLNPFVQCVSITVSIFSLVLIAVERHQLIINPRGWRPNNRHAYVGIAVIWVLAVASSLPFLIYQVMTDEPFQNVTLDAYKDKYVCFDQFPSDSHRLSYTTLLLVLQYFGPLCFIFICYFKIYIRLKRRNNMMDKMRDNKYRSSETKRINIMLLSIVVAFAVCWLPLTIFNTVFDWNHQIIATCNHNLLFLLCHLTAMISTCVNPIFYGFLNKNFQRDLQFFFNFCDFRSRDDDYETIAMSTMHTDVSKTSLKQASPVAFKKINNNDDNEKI

[2] = target: T3, C-X-C chemokine receptor type 1 (Homo sapiens, UniProt P25024); further: in other assays of this panel Not Active means under 50% inhibition at 10 µM
T3 sequence (P25024 whole entry): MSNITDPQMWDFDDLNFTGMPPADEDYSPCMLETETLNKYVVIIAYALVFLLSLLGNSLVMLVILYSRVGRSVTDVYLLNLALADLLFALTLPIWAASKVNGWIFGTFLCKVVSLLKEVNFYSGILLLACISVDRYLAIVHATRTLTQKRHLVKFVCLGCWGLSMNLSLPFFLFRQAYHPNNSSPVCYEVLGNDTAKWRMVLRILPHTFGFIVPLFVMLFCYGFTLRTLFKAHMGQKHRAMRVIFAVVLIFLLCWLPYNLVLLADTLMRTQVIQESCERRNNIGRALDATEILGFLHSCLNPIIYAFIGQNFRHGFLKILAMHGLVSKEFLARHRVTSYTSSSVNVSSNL

Melanocortin receptor 4 = Melanocortin receptor 4 (Homo sapiens, UniProt P32245); type: cell membranes, Membrane; details: hek293; further: in other assays of this panel Not Active means under 50% inhibition at 10 µM
Chain of Melanocortin receptor 4 (P32245 whole entry): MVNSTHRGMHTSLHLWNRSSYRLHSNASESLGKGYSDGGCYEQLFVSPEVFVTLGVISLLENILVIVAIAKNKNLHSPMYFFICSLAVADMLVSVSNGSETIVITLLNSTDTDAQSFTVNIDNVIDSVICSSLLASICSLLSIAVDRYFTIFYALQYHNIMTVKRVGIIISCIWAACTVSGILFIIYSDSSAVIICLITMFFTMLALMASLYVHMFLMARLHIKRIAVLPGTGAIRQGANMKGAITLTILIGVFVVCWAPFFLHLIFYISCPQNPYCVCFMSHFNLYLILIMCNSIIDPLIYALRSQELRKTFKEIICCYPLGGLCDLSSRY

[3] = target: T4, Polyunsaturated fatty acid lipoxygenase ALOX15 (Oryctolagus cuniculus, UniProt P12530); assay: biochemical; type: tissue-based, Reticulocytes; details: reticulocytes
T4 sequence (P12530 whole entry): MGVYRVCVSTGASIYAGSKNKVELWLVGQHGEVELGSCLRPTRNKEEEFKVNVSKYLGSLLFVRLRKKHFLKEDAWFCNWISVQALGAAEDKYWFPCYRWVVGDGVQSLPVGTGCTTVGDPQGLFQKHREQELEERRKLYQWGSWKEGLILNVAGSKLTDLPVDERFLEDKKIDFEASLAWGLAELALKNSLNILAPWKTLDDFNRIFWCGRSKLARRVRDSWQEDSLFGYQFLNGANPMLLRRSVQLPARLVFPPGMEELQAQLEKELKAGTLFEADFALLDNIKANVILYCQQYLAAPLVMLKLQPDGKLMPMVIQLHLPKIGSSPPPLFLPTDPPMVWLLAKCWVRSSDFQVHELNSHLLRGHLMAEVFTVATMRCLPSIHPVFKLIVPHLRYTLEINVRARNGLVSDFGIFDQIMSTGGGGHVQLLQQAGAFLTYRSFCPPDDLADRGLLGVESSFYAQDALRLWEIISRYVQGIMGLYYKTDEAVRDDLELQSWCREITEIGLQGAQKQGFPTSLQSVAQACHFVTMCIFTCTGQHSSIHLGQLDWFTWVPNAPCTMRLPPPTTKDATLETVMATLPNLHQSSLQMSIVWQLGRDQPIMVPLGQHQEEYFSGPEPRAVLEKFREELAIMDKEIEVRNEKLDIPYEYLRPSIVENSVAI

[4] = DRUGMATRIX: Phosphodiesterase PDE4 enzyme inhibition (substrate: [3H]cAMP + cAMP); details: u-937, Not Active = under 50% inhibition at 10 µM
[5] = target: C-C chemokine receptor type 2 (Homo sapiens, UniProt P41597); type: cell membranes, CHO-K1, Membrane; details: cho-k1; further: in other assays of this panel Not Active means under 50% inhibition at 10 µM
Chain of C-C chemokine receptor type 2 (P41597 whole entry): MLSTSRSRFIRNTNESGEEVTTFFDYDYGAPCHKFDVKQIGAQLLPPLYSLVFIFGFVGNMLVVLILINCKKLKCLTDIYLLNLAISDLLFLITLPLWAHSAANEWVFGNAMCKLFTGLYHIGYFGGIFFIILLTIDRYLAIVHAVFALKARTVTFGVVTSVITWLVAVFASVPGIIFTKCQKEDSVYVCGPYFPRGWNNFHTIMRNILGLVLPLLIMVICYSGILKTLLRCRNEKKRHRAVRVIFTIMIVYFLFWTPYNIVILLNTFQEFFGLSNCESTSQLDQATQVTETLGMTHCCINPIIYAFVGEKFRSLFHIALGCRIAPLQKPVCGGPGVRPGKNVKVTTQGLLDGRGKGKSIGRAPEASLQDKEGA

Row | SMILES | IC50 (Adenosine receptor A3; cho-k1) | IC50 [1] | IC50 [2] | IC50 (Melanocortin receptor 4) | IC50 [3] | IC50 [4] | Ki [4] | IC50 [5] | IC50 (Adenosine receptor A3; read-out: IC50) | Ki (Adenosine receptor A3; read-out: Ki) | IC50 ([4]; read-out: IC50)
1 | Nc1ccc(C(=O)O)c(O)c1 [AMINOSALICYLIC ACID] | Not Active | Not Active | Not Active | Not Active | Not Active | Not Active | Not Active | Not Active |  |  | 
2 | OC[C@H]1O[C@@H]2O[C@H]3[C@H](O)[C@@H](O)[C@@H](O[C@H]4[C@H](O)[C@@H](O)[C@@H](O[C@H]5[C@H](O)[C@@H](O)[C@@H](O[C@H]6[C@H](O)[C@@H](O)[C@@H](O[C@H]7[C@H](O)[C@@H](O)[C@@H](O[C@H]1[C@H](O)[C@H]2O)O[C@@H]7CO)O[C@@H]6CO)O[C@@H]5CO)O[C@@H]4CO)O[C@@H]3CO [ALFADEX] | Not Active | Not Active | Not Active | Not Active | Not Active | Not Active | Not Active | Not Active |  |  | 
3 | COC(=O)C[C@](O)(CCC(C)(C)O)C(=O)O[C@@H]1C(OC)=C[C@]23CCCN2CCc2cc4c(cc2[C@H]13)OCO4 [HARRINGTONINE] | Not Active | Not Active | Not Active | Not Active | Not Active | Not Active | Not Active | Not Active |  |  | 
4 | O=C1CN(/N=C/c2ccc([N+](=O)[O-])o2)C(=O)N1 [NITROFURANTOIN] | Not Active | Not Active | Not Active | Not Active | Not Active | Not Active | Not Active | Not Active |  |  | 
5 | C[N+](C)(C)CCOC(N)=O.[Cl-] [CARBACHOL] | Not Active | Not Active | Not Active | Not Active | Not Active | Not Active | Not Active | Not Active |  |  | 
6 | O=C(NCCN1CCOCC1)c1ccc(Cl)cc1 [MOCLOBEMIDE] | Not Active | Not Active | Not Active | Not Active | Not Active | Not Active | Not Active | Not Active |  |  | 
7 | CC12CCC(CC1)C(C)(C)O2 [EUCALYPTOL] | Not Active | Not Active | Not Active | Not Active | Not Active | Not Active | Not Active | Not Active |  |  | 
8 | CC(N)Cc1c[nH]c2ccc(OCc3cccs3)cc12 (stereo not drawn) [BW-723C86] | Not Active | Not Active | Not Active | Not Active | Not Active | Not Active | Not Active | Not Active |  |  | 
9 | CCN1C[C@]2(COC)[C@H](O)C[C@H](OC)[C@@]34[C@@H]5C[C@@]6(O)[C@H](OC(=O)c7ccccc7)[C@@H]5[C@@](OC(C)=O)([C@@H]([C@H](OC)[C@H]23)[C@@H]14)[C@@H](O)[C@@H]6OC [ACONITINE] | Not Active | Not Active | Not Active | Not Active | Not Active | Not Active | Not Active | Not Active |  |  | 
10 | OC[C@H]1OC2C3[C@@H](CO)OC(O[C@H]4[C@H](O)[C@@H](O)[C@@H](O[C@H]5[C@H](O)[C@@H](O)[C@@H](O[C@H]6[C@H](O)[C@@H](O)[C@@H](O[C@H]7[C@H](O)[C@@H](O)[C@@H](O[C@H]8[C@H](O)[C@@H](O)[C@@H](O[C@H]9[C@H](O)[C@@H](O)C(OC1[C@H](O)[C@H]2O)O[C@@H]9CO)O[C@@H]8CO)O[C@@H]7CO)O[C@@H]6CO)O[C@@H]5CO)O[C@@H]4CO)[C@H](O)[C@H]3O | Not Active | Not Active | Not Active | Not Active | Not Active | Not Active | Not Active | Not Active |  |  | 
11 | CN(CCOc1ccc(C[C@H](Nc2ccccc2C(=O)c2ccccc2)C(=O)O)cc1)c1ccccn1 |  | Not Active | Not Active | Not Active | Not Active |  |  | Not Active | 14.3 µM | 8.09 µM | 7.45 µM
12 | CCN1CCN(c2cc3c(cc2F)c(=O)c(C(=O)O)cn3C2CC2)CC1 [ENROFLOXACIN] | Not Active | Not Active | Not Active | Not Active | Not Active | Not Active | Not Active | Not Active |  |  | 
13 | NS(=O)(=O)c1cc(C(=O)O)c(NCc2ccco2)cc1Cl [FUROSEMIDE] | Not Active | Not Active | Not Active | Not Active | Not Active | Not Active | Not Active | Not Active |  |  | 
14 | NC(=O)NC(=O)Cc1ccccc1 [PHENACEMIDE] | Not Active | Not Active | Not Active | Not Active | Not Active | Not Active | Not Active | Not Active |  |  | 
15 | Cc1cc(C(C)(C)C)c(O)c(C)c1CC1=NCCN1 [OXYMETAZOLINE] | Not Active | Not Active | Not Active | Not Active | Not Active | Not Active | Not Active | Not Active |  |  | 
16 | CC(CN1c2ccccc2Sc2ccccc21)N(C)C (stereo not drawn) [PROMETHAZINE] | Not Active | Not Active | Not Active | Not Active | Not Active | Not Active | Not Active | Not Active |  |  | 
17 | NC(N)=Nc1nc(CSCCC(N)=NS(N)(=O)=O)cs1 [FAMOTIDINE] | Not Active | Not Active | Not Active | Not Active | Not Active | Not Active | Not Active | Not Active |  |  | 
18 | C[C@]12CC[C@@H](O)C[C@@H]1CC[C@@H]1[C@@H]2CC[C@]2(C)C(=O)CC[C@@H]12 [ANDROSTERONE] | Not Active | Not Active | Not Active | Not Active | Not Active | Not Active | Not Active | Not Active |  |  | 
19 | ClC1=C(Cl)[C@]2(Cl)[C@@H]3[C@@H]4C[C@@H]([C@H]5O[C@@H]45)[C@@H]3[C@@]1(Cl)C2(Cl)Cl [DIELDRIN] | Not Active | Not Active | Not Active | Not Active | Not Active | Not Active | Not Active | Not Active |  |  | 
20 | CC(=O)[C@]1(O)Cc2c(O)c3c(c(O)c2[C@@H](O[C@H]2C[C@H](N)[C@H](O)[C@H](C)O2)C1)C(=O)c1ccccc1C3=O [IDARUBICIN] | Not Active | Not Active | Not Active | Not Active | Not Active | Not Active | Not Active | Not Active |  |  | 
21 | COC(=O)Nc1nc2ccc(Sc3ccccc3)cc2[nH]1 [FENBENDAZOLE] | Not Active | Not Active | Not Active | Not Active | Not Active | Not Active | Not Active | Not Active |  |  | 
